Measurements as given in patent publication US10787430B2, “Hemoglobin modifier compounds and uses thereof” (FronThera U.S. Pharmaceuticals LLC, priority 2016, dated 2020).

Key:
[1] = molecular target: T1, hemoglobin (20% hct blood) (Homo sapiens, UniProt P68871+P69905); experiment: Dose-dependent whole blood OEC studies; type: cell-based; settings: 37° C., 1 hr; for delta p50 0.2 mM: 0.2 mM compound; for delta p50 0.5 mM: 0.5 mM compound
T1 construct: Normal whole blood was collected from adult healthy donors; from tissue; host or cells: normal human whole blood (red blood cells), adult healthy donors
Procedure: Materials: Normal whole blood was collected from adult healthy donors at the Virginia Commonwealth University after informed consent. The use of these human samples is in accordance with regulations of the IRB for Protection of Human Subjects. Compounds (50 mM-100 mM concentration in DMSO) were stored at 15° C. or room temperature until use.
To 2 ml 20% hct blood, 0.2 or 0.5 or 1 mM compound was added and kept shaking at 37° C. for 1 hr. OEC analysis was performed as described above to determine partial pressure of oxygen (pO2) and Hb oxygen saturation values (sO2). A control without compound but containing equivalent amount of DMSO was performed (1%). GBT440 was used as a positive control. Table 2 below lists the delta p50% values.

[2] = system: sickled HbSS whole blood (RBC sickling); experiment: Anti-sickling assay in HbSS sickled blood under hypoxic induction; type: cell-based, human; settings: HbSS whole blood 26% Hct, 20 mins hypoxic induction; 0.2 mM compounds (FIG. 2)
Procedure: Materials: • Blood collected after informed consent from sickle cell individuals. • HBS buffer: 10 mM HEPES, 145 mM NaCl, pH 7.4 • Hemox buffer: Buffer provided for the hemox analyzer • Control Compound stock solution in DMSO (50 mM) stored at RT • Control Compound work solution (CWS): 10 μl of DMSO was added by Hamilton to 90 μl of HBS buffer (20 mM Hepes, 145 mM NaCl, pH 7.4) to create a working solution with a final concentration of 5 mM drug and 10% DMSO). • Compound stock solution in DMSO (50 mM) stored at RT • Compound work solution (WS): 10 μl of DMSO was added by Hamilton to 90 μl of HBS buffer (20 mM Hepes, 145 mM NaCl, pH 7.4) to create a working solution with a final concentration of 5 mM drug and 10% DMSO). • DMSO buffer: 10% DMSO (DB), same as WS but without drug. This will be used to maintain DMSO the same for different drug incubations. Test Protocol:
Collect blood from Clinic: Blood were collected after informed consent according to an approved IRB protocol. • Run Advia 120 analysis on SCD blood, to determine Hct. • Dilute blood to 20% Hct with HBS to total volume of 3 ml. • This cell suspension (CS) will be used for all experiments.
Incubation • 1. 200 μl CS • 2. 200 μl CS+20 μl CWS (5 mM diluted 10 times=0.5 mM control final)−(1% DMSO) • 3. 200 μl CS+20 μl WS (5 mM diluted 10 times=0.5 mM control final)−(1% DMSO) • 4. 200 μl CS+8 μl WS (0.2 mM drug final)+DB−(1% DMSO) • Incubate 30 minutes at 37° C.
50 μl into 1 ml HBS+2% BSA buffer. Eight time points (0-20 minutes) at 2% oxygen, 10,000 events each)
The sickling runs provide sets samples that need to be run on the AMNIS image flow and are subsequently analyzed with pixel analysis software.
Drug was provided at 50 mM concentration in DMSO, and stored at room temperature until use. 10 μl of DMSO was added by Hamilton to 90 μl of HBS buffer (20 mM Hepes, 145 mM NaCl, pH 7.4) to create a working solution with a final concentration of 5 mM drug and 10% DMSO). Blood was collected from a sickle cell patient in EDTA anticoagulant. To 200 μl of whole blood, a 20 or 8 μl of working solution was added resulting in a final drug concentration of 0.5 mM or 0.2 mM respectively. The DMSO concentration in both was corrected to 1%. The final hematocrit was measured by ADVIA analysis to be 26%. […] The delta hemox (%) comparing Example 29e with GBT440 is shown in FIG. 1A (0.2 mM) and FIG. 1B (0.5 mM).
Anti-sickling is shown in FIG. 2 with M: maximum percentage of sickled cells during 20 mins of hypoxic induction, T: time needed to reach 50% of M, and Z: baseline percentage of sickled cells prior to hypoxic induction.

CYP1A2 = molecular target: T2, CYP1A2 (Homo sapiens, UniProt P05177); experiment: CYP inhibition evaluation in human liver microsomes; type: in vitro ADME
T2 construct: from tissue; host or cells: human liver microsomes
T2 sequence (P05177 1-516): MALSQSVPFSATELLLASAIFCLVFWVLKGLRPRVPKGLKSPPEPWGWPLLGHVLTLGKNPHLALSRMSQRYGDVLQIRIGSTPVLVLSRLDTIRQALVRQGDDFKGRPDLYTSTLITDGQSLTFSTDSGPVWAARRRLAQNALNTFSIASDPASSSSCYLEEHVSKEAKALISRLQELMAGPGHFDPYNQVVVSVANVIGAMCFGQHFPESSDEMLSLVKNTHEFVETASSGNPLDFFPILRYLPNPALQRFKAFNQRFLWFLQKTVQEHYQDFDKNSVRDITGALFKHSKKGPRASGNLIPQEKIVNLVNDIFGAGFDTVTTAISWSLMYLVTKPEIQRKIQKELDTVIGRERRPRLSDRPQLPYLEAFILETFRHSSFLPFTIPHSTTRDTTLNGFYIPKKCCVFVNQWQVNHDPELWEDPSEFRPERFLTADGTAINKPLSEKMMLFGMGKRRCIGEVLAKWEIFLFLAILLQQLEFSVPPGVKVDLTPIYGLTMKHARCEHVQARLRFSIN
Excerpt: (§1) Example A5: CYP Inhibition Evaluation in Human Liver Microsomes

CYP2C19 = molecular target: T3, CYP2C19 (Homo sapiens, UniProt P33261); experiment: as above; type: in vitro ADME
T3 construct: from tissue; host or cells: human liver microsomes
Excerpt: as §1

CYP2C8 = molecular target: T4, CYP2C8 (Homo sapiens, UniProt P10632); experiment: as above; type: in vitro ADME
T4 construct: from tissue; host or cells: human liver microsomes
T4 sequence (P10632 1-490): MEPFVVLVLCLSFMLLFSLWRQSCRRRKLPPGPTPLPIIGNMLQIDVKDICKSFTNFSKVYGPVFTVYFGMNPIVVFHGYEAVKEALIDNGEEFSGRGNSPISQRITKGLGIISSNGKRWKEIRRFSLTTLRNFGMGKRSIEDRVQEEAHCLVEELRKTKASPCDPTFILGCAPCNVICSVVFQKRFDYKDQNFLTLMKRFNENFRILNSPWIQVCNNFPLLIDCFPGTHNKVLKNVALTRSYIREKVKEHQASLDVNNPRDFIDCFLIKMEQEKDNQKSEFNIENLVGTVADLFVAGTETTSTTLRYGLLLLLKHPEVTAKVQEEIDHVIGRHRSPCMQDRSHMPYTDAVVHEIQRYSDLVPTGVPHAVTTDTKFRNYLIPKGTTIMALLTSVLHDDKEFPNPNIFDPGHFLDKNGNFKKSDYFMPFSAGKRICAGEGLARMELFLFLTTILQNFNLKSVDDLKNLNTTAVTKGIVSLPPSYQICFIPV
Excerpt: as §1

CYP2C9 = molecular target: T5, CYP2C9 (Homo sapiens, UniProt P11712); experiment: as above; type: in vitro ADME
T5 construct: from tissue; host or cells: human liver microsomes
Excerpt: as §1

CYP2D6 = molecular target: T6, CYP2D6 (Homo sapiens, UniProt P10635); experiment: as above; type: in vitro ADME
T6 construct: from tissue; host or cells: human liver microsomes
Excerpt: as §1

CYP3A4-M = molecular target: T7, CYP3A4-M (Homo sapiens, UniProt P08684); experiment: as above; type: in vitro ADME
T7 construct: from tissue; host or cells: human liver microsomes
Excerpt: as §1

[3] = Microsome stability evaluation in rat liver microsomes; type: in vitro ADME; settings: read-out: Rat microsome, t½
Excerpt: (§2) Example A6: Microsome Stability Evaluation in Human and Rat Liver Microsomes

[4] = Microsome stability evaluation in human liver microsomes; type: in vitro ADME; settings: read-out: Human microsome, t½
Excerpt: as §2

T7 sequence (P08684 whole entry): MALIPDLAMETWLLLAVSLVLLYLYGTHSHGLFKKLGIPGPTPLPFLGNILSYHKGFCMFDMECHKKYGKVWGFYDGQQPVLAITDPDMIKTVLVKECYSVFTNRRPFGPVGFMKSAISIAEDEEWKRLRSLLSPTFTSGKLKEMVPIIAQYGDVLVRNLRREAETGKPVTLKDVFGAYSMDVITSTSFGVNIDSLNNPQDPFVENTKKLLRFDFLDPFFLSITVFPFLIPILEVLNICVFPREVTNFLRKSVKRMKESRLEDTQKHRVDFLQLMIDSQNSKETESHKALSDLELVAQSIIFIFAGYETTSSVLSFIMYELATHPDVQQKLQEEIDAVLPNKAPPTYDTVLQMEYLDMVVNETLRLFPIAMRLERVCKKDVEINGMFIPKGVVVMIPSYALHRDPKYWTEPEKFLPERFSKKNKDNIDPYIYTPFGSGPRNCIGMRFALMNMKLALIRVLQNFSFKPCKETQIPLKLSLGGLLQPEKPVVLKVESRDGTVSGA
T5 sequence (P11712 whole entry): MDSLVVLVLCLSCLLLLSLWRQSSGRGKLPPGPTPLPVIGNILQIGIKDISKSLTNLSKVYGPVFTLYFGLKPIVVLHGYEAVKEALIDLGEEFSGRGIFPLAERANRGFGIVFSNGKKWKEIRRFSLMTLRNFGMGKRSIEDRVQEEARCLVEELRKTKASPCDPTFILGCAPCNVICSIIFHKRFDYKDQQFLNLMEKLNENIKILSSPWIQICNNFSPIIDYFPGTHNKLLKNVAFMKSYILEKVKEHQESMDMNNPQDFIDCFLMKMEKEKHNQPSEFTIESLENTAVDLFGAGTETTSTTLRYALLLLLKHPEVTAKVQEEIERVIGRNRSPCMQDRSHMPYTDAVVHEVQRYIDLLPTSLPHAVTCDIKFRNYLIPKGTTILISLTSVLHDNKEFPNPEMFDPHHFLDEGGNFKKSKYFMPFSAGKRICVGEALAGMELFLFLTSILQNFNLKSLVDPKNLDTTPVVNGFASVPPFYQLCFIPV
T3 sequence (P33261 whole entry): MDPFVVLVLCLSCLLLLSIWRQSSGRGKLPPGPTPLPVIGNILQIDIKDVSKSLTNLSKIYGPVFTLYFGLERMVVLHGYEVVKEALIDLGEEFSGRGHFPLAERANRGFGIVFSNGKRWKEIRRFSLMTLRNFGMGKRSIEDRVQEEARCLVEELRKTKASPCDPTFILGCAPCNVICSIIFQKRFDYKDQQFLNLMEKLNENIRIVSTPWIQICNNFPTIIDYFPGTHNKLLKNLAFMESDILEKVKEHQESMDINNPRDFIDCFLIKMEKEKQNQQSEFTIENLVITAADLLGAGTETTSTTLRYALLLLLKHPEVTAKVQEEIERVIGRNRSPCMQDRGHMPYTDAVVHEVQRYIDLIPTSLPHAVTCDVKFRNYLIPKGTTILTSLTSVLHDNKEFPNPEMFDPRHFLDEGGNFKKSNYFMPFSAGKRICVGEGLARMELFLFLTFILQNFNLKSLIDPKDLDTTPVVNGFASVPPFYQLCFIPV
T1 sequence (P69905 2-142 limits assumed): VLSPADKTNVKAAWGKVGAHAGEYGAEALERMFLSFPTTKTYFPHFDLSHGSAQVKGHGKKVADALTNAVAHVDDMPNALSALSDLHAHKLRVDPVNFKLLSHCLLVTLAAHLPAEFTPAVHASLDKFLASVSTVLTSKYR
T1 sequence (P68871 2-147 limits assumed): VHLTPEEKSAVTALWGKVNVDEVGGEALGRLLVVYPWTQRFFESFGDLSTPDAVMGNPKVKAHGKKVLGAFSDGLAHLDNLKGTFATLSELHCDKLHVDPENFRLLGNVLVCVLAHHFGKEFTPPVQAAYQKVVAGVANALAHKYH
T6 sequence (P10635 whole entry): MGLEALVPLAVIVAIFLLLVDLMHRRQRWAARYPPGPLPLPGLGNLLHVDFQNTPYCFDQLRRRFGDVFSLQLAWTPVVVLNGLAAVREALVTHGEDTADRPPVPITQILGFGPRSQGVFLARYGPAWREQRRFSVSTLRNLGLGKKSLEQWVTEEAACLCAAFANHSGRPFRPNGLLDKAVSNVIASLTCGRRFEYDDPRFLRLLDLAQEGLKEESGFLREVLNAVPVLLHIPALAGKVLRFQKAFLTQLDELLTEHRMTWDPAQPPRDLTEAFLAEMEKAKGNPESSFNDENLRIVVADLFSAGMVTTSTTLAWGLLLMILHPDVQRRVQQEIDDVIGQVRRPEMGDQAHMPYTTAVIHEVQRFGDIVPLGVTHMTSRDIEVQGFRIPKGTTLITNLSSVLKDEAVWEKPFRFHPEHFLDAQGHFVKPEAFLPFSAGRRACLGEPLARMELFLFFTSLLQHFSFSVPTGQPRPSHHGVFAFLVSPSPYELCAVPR

SMILES	delta p50 0.2 mM [1]	delta p50 0.5 mM [1]	Reduction in % sickled cells compared to untreated [2]	IC50 (CYP1A2)	IC50 (CYP2C19)	IC50 (CYP2C8)	IC50 (CYP2C9)	IC50 (CYP2D6)	IC50 (CYP3A4-M)	half-life [3]	half-life [4]
[2H]C([2H])(Oc1cc(F)cc(O)c1C=O)c1cccnc1-c1ccnn1C(C)C [Example 27b, 4-fluoro-2-hydroxy-6-((2-(1-isopropyl-1H-pyrazol-5-yl)pyridin-3-yl)methoxy-d2)benzaldehyde]	−18.8%	−56.6%	−30.8%	22 µM	6.1 µM	3.7 µM	11 µM	> 30 µM	10 µM	19 min	24 min
[2H]C([2H])(Oc1cccc(O)c1C=O)c1cccnc1-n1ccnc1C(C)C [Example 29e, 2-hydroxy-6-((2-(2-isopropyl-1H-imidazol-1-yl)pyridin-3-yl)methoxy-d2)benzaldehyde]	−24.9%	−66.1%	−27.1%	> 50 µM	19.5 µM	> 50 µM	36.5 µM	> 50 µM	> 50 µM	11 min	11 min
CC(C)n1nccc1-c1ncccc1COc1cccc(O)c1C=O [GBT440, reference compound]	−14.2%	−35.1%	−22.4%	17.6 µM	7 µM	12.4 µM	28.1 µM	> 30 µM	> 30 µM	22 min	24 min
